Measured values reported in patent US6768007B2, “Substituted 3′,4′-di-O-camphanoyl-(+)-cis-khellactone analogs, compositions thereof, and methods for using thereof” (Panacos Pharmaceuticals, Inc., priority 2001, dated 2004).
Each block holds one compound with its values, some of them ahead of it.

Key:
[1] = design: species or system rats; settings: rat, in vivo
Procedure: Studies of the disposition of compound 11 ((3′R,4′R)-3′,4′-di-O-(S)-(−)-camphanoyl-3-hydroxymethyl-4-methyl-(+)-cis-khellactone) and 4-methyl-DCK ((3′R,4′R)-3′,4′-di-O-(S)-(−)-camphanoyl-4-methyl-(+)-cis-khellactone) were conducted in rats. 4-Methyl-DCK can be prepared, for example, as described in U.S. Pat. No. 5,847,165. The rats ordered from Charles River with jugular catheters in place were allowed to acclimate for one to two days prior to use. The venous catheter was kept patent by flushing daily with heparin solution. […]
Reversed phase HPLC was conducted with an ODS, 5 μM particle size, 150×10 mm Axxiom column (Thompson Instruments, Chantilly, Va.) using 55% acetonitrile and water as the mobile phase with 25 mM acetic acid buffer at 1.5 mL/min. Detection was carried out at 320 nm (λmax) for UV detection and at an excitation wavelength of 320 nm. The equipment for HPLC was an HP 1100 system with UV and quantitative analysis was performed using the HP Chemstation. […]
Weighed amounts (approximately 7-8 mg) of 4-methyl-DCK were suspended in 1 mL of 10% Tween 80/water, then administered to two rats (250-300 g) by oral gavage using a feeding needle to provide an oral dose of 25 mg/kg. Blood samples (0.3 mL) were collected at 0, 0.25, 0.50, 0.75, 1.0, 1.5, 2, 4, 8, and 23 hours following the oral dosing. Approximately 0.01 mL of heparin was added to each sample. The samples were then centrifuged to collect 0.10 mL of plasma. The plasma samples were frozen at −20° C. prior to analysis. The samples were thawed and analyzed by reversed phase HPLC within two weeks of collection.
Reversed phase HPLC was conducted with an ODS, 5 μM particle size, 150×10 mm Axxiom column (Thompson Instruments, Chantilly, Va.) using 60% acetonitrile/0.1% TFA in water as the mobile phase. Detection was carried out at 320 nm (λmax) for UV detection. The equipment for HPLC was an HP 1050 quaternary HPLC pump, an HP 1050 UV detector at 320 nm and range 0.2, an HP 3390 integrator, and a BioRad Model AS-100 autosampler.
Standard curves were prepared by addition of appropriate diluted stock solutions of 4-methyl-DCK to 0.10 mL plasma (pooled human plasma) to provide concentration of zero, and 0.05 to 20 μg/mL in a 13×100 mm culture tube. Internal standard solution (0.025 mL of 0.01 mg/mL DCK) was then added to each tube. The spiked samples were briefly vortexes, then allowed to equilibrate for at least 10 minutes prior to further workup. […]
The HPLC assay was partially validated to have a range of 0.125 to 20 μg/mL in plasma, with a detection limit of 50 ng/mL. Recovery from plasma was determined by spiking 4-methyl-DCK into plasma the same way as was done in the preparation of the standard curve, and preparing samples as described above, but adding DCK as an external standard just prior to injection. […]

HIV-1 (IIIB isolate) = test: Anti-HIV activity in H9 lymphocytes (p24 antigen ELISA); assay type: cell-based; settings: H-9 lymphocytes; for Anti-HIV Activity EC50: HIV-1 IIIB, p24 ELISA, day 5, average of at least two experiments; for Therapeutic Index (TI = IC50/EC50): ratio of IC50 to EC50
Procedure: (§1) The biological evaluation of HIV-1 inhibition was carried out according to established protocols, (Kashiwada, Y., et al., J. Med. Chem. 39:1016-1017 (1996); Hashimoto, F., et al., Bioorg. & Med. Chem. 5:2133-2143 (1997)). The T cell line, H9, was maintained in continuous culture log-phase growth in complete medium (RPMI 1640 with 10% fetal calf serum supplemented with L-glutamine at 5% CO2 and 37° C.). Test samples were first dissolved in dimethyl sulfoxide at a concentration of 10 mg/ml to generate master stocks with dilutions made into tissue culture media to generate working stocks. The following drug concentrations were used routinely for screening: 50, 5, and 0.5 μg/mL. For agents found to be active, additional dilutions were prepared for subsequent testing so that an accurate EC50 value (defined below) could be determined. As the test samples were being prepared, an aliquot of the H9 cell line was infected with HIV-1 (IIIB isolate) while a second aliquot was mock-infected with complete medium. […] An amount of virus equal to approximately 6.25×10^4 TCID50 was added to the first aliquot of 3.5×10^6H9 cells. The second aliquot received tissue culture medium only, and these mock-infected cells were used for toxicity determinations (IC50 defined below). After a 4 h incubation at 37° C. and 5% CO2, both cell populations were washed three times with fresh medium and then added to the appropriate wells of a 96-well plate containing various concentrations of the test drug or tissue culture medium (positive infected control/negative drug control). In addition, AZT was assayed during each experiment as a positive drug control. The plates were incubated at 37° C. and 5% CO2 for 5 days. Cell-free culture supernatants were collected on Day 5 for use in a p24 antigen-capture ELISA assay to determine virus replication. p24 is the core protein of HIV and therefore is an indirect measure of the amount of virus present in the culture supernatants. Toxicity was determined using a viable dye method (XTT) on mock-infected H9 cells that were treated with test sample, AZT or no drug. If a test sample suppressed viral replication and was toxic to less than 50% of the cells, its effects were reported in the following terms: IC50, the concentration of test sample which was toxic to 50% of the mock-infected H9 cells; EC50, the concentration of the test sample which was able to suppress HIV replication by 50%; and Therapeutic Index (TI), the ratio of IC50 to EC50.
(§2) Compounds of the present invention were assayed for anti-HIV activity according to the following assay procedures. The T cell line, H9, and the promonocytic cell line, U937, were maintained separately in continuous culture with complete medium (RPMI 1640 with 10% fetal calf serum) at 5% CO2 and 37° C. The cell lines were used in experiments only when in the logarithmic phase of growth, whereas uninfected peripheral blood mononuclear cells (PBMCs) were first stimulated with PHA (1 μg/mL) for three days. All cell targets were incubated with HIV-1 (IIIB isolate, 1×10^6 TCID50/mL) for one hour at 37° C. and 5% CO2. The cell lines and PBMCs were washed thoroughly to remove unadsorbed virions and resuspended at 4×10^5 cells/mL in complete medium or complete medium with 10% v/v interleukin 2 (IL-2), respectively. […] aliquots were placed into wells of 96-well tissue culture plates containing an equal volume of test compounds (diluted in the appropriate culture medium). The toxicity of each compound was assessed by determining the viability of compound-exposed uninfected cells after five days at 37° C. and 5% CO2. A p24 antigen ELISA assay was used to determine the level of virus released in the medium of the HIV-infected cultures. The p24 antigen assay used a HIV-1 anti-p24 specific monoclonal antibody as the capture antibody coated onto 96-well plates. […]

mock-infected H9 cells = test: Cytotoxicity in mock-infected (uninfected) H9 cells; assay type: cell-based
Procedure: as §1, §2

[2] = test system: HIV-1 replication in H9 lymphocyte cells; settings: background art, cited from earlier work; for EC50: read-out: EC50 against HIV-1 replication

SMILES: CC1(C)Oc2ccc3ccc(=O)oc3c2[C@@H](OC(=O)[C@@]23CCC(C)(C(=O)O2)C3(C)C)[C@H]1OC(=O)[C@@]12CCC(C)(C(=O)O1)C2(C)C (relative stereo) [DCK, 3′,4′-di-O-(S)-(−)-camphanoyl-(3′R,4′R)-(+)-cis-khellactone]
EC50 [2]: 0.256 nM
therapeutic index (TI) [2]: 136,719

SMILES: Cc1cn([C@H]2C[C@H](N=[N+]=[N-])[C@@H](CO)O2)c(=O)[nH]c1=O [AZT, reference compound]
Anti-HIV Activity EC50 (HIV-1 (IIIB isolate)): 0.045 µg/mL
Therapeutic Index (TI = IC50/EC50) (HIV-1 (IIIB isolate)): 41,667
Cytotoxicity IC50 (mock-infected H9 cells): 1875 µg/mL

SMILES: CC(=O)O[C@@H]1[C@H](OC(=O)CC(C)C)c2c(ccc3ccc(=O)oc23)OC1(C)C [suksdorfin, (3′R,4′R)-3′-acetoxy-4′-isovaleryloxy-(+)-cis-khellactone]
EC50 [2]: 1300 nM
therapeutic index (TI) [2]: 140

Second part, led by results:

concentration in plasma after oral administration ([1]; po, 25 mg/kg): less than 50 ng/mL
SMILES: Cc1cc(=O)oc2c3c(ccc12)OC(C)(C)[C@H](OC(=O)[C@@]12CCC(C)(C(=O)O1)C2(C)C)[C@@H]3OC(=O)[C@@]12CCC(C)(C(=O)O1)C2(C)C (relative stereo) [Compound 4-methyl-DCK, (3′R,4′R)-3′,4′-di-O-(S)-(−)-camphanoyl-4-methyl-(+)-cis-khellactone, reference compound]

Anti-HIV Activity EC50 (HIV-1 (IIIB isolate)): 0.0161 µg/mL
oral bioavailability (Foral) [1]: 15%
clearance ([1]; iv): 83 mL/min/kg
time at which Cmax occurs ([1]; po): 120 to 240 min
SMILES: Cc1c(CO)c(=O)oc2c3c(ccc12)OC(C)(C)[C@H](OC(=O)[C@@]12CCC(C)(C(=O)O1)C2(C)C)[C@@H]3OC(=O)[C@@]12CCC(C)(C(=O)O1)C2(C)C (relative stereo) [Compound 11, (3′R,4′R)-3′,4′-Di-O-(S)-(−)-camphanoyl-3-hydroxymethyl-4-methyl-(+)-cis-khellactone]
Therapeutic Index (TI = IC50/EC50) (HIV-1 (IIIB isolate)): 1,320
Cytotoxicity IC50 (mock-infected H9 cells): 21.2 µg/mL

Anti-HIV Activity EC50 (HIV-1 (IIIB isolate)): 0.69 µg/mL
SMILES: CCN(CC)Cc1cc2ccc3c(c2oc1=O)[C@@H](OC(=O)[C@@]12CC[C@@](C)(C(=O)O1)C2(C)C)[C@@H](OC(=O)[C@@]12CC[C@@](C)(C(=O)O1)C2(C)C)C(C)(C)O3 (relative stereo) [Compound 16, (3′R,4′R)-3′,4′-Di-O-(S)-(−)-camphanoyl-3-diethylaminomethyl-(+)-cis-khellactone]
Therapeutic Index (TI = IC50/EC50) (HIV-1 (IIIB isolate)): 62
Cytotoxicity IC50 (mock-infected H9 cells): 43.01 µg/mL
